Experimental data taken from patent publication US20070073056A1, “4-Substituted Pyrazoline Compounds, their Preparation and Use as Medicaments” (LABORATORIOS DEL DR. ESTEVE, S.A., priority 2005, published 2007).
Counter-ions that a name gives are not always drawn.

Key:
CB1-receptor [1] = molecular target: CB1-receptor (UniProt P20272); assay: binding of the pyrazoline compounds to CB1-receptors (Pharmacological Methods, Part I); set-up: IC50; species or system human or rat; settings: radioligand [3H]-CP55940, read-out: IC50
Protocol: (§1) I. In-vitro Determination of Affinity to CB1/CB2-Receptors
(§2) The in-vitro determination of the affinity of the inventive 4-substituted pyrazoline compounds to CB1/CB2-Rezeptors is carried out as described in the publication of Ruth A. Ross, Heather C. Brockie et al., “Agonist-inverse agonist characterisation at CB1 and CB2 cannabinoid receptors of L-759633, L759656 and AM630”, British Journal of Pharmacology, 126, 665-672, (1999), whereby the transfected human CB1 and CB2 receptors of Receptor Biology, Inc. are used. The radioligand used for both receptors is [^3H]-CP55940. The respective parts of the description is hereby incorporated by reference and forms part of the present disclosure.
(§3) Rat Cerebellum CB1 Binding
(§4) Binding affinity to CB1 receptor was evaluated according to a modification of the method described by Govaerts et al., Eur J Pharmac Sci 23, 233-243 (2004). The respective parts of the description is hereby incorporated by reference and forms part of the present disclosure.
(§5) Briefly, cerebellum from male wistar rats (250-300 g) were carefully dissected on ice and homogenates were prepared with Potter-Helveheim in a cold 50 mM Tris-HCl solution containing 5 mM MgCl2, 1 mM EDTA and 0.25 M sucrose, pH 7.4. The suspension was centrifuged at […] for 5 minutes. The supernatants were collected and centrifuged 50,000×g for 15 minutes. The resulting pellets were then resuspended in Tris-HCl buffer without sucrose, homogenized and incubated for 15 min at 37° C. in an orbital shaker bath and centrifuged again at 50,000×g for 15 min. Pellets were weighted, resuspended in Tris-HCl buffer without sucrose, homogenized with Ultraturrax at 13,500 rpm for 3×5 seconds and alicuoted in 0.9 ml volumes in Eppendorf tubes. Alicuotes were centrifuged at 20,800×g for 5 minutes, supernatants discarded and pellets were frozen at −80° C. until use. Total protein concentration was determined using the Bio-Rad Lowry method based kit. Competitive binding experiments were performed in presence of 1 nM [^3H]-CP 55,940 in siliconized glass tubes containing 100 μg protein/tube resuspended in 1 ml final volume of 50 mM Tris-HCl, 5 mM MgCl2, 1 mM EDTA, 0.5% (w/v) bovine serum albumin, pH 7.4. Compounds were present at various concentrations and the non specific binding was determined in the presence of 10 μM HU-210. After 1 hour incubation at 30° C., the suspension was rapidly filtered through 0.5% PEI pre-treated GF/B fiber filters on a 96-well harvester and washed 3 times with 3 ml ice-cold binding buffer without bovine serum albumin. Radioactivity on filters was measured with Wallac Winspectral 1414 counter by liquid scintillation in 6 ml Ecoscint H (National Diagnostics, U.K.). Assays were made in triplicates.
(§6) Binding data were analyzed by non-linear regression with the software GraphPad Prism Version 3.03.
(§7) The binding of the pyrazoline compounds of general formula I to CB1-receptors was determined according to the method described in the section Pharmacological Methods, Part I.

CB1-receptor [2] = molecular target: CB1-receptor (UniProt P20272); assay: as above; set-up: other: 10^−7 M; other: 10^−8 M; species or system human or rat
Protocol: as §1, §2, §3, §4, §5, §6, §7

Row | IC50 (CB1-receptor [1]) [nM] | Inhibition (CB1-receptor [2]; 10^−7 M) [%] | Inhibition (CB1-receptor [2]; 10^−8 M, in %) | Molecule
1 | 200 | – | – | C[C@H]1C(C(=O)N2CCN(C3CCCCC3)CC2)=NN(c2ccc(Cl)cc2Cl)[C@H]1c1ccc(Cl)cc1 (relative stereo) [Example 5, cis-[5-(4-Chloro-phenyl)-1-(2,4-dichloro-phenyl)-4-methyl-4,5-dihydro-1H-pyrazol-3-yl]-(4-cyclohexyl-piperazin-1-yl)-methanone]
2 | 77.3 | – | – | CC1CCN(NC(=O)C2=NN(c3ccc(Cl)cc3Cl)[C@@H](c3ccc(Cl)cc3)[C@H]2C)CC1 (relative stereo) [Example 9, cis-5-(4-Chloro-phenyl)-1-(2,4-dichloro-phenyl)-4-methyl-4,5-dihydro-1H-pyrazole-3-carboxylic acid (4-methyl-piperidin-1-yl)-amide]
3 | 100 | – | – | C[C@H]1C(C(=O)NN2CCc3ccccc32)=NN(c2ccc(Cl)cc2Cl)[C@H]1c1ccc(Cl)cc1 (relative stereo) [Example 15, cis-5-(4-Chloro-phenyl)-1-(2,4-dichloro-phenyl)-4-methyl-4,5-dihydro-1H-pyrazole-3-carboxylic acid (2,3-dihydro-indol-1-yl)-amide]
4 | > 1000 | – | – | C[C@H]1C(C(=O)NN2CCCCC2)=NN(c2ccc(Cl)cc2Cl)[C@@H]1c1ccc(Br)s1 (relative stereo) [Example 71, trans-5-(5-Bromo-thiophen-2-yl)-1-(2,4-dichloro-phenyl)-4-methyl-4,5-dihydro-1H-pyrazole-3-carboxylic acid piperidin-1-ylamide]
5 | 180 | – | – | C[C@H]1C(C(=O)NN2CCCCC2)=NN(c2ccc(Cl)cc2Cl)[C@H]1c1cc(Br)cs1 (relative stereo) [Example 75, cis-5-(4-Bromo-thiophen-2-yl)-1-(2,4-dichloro-phenyl)-4-methyl-4,5-dihydro-1H-pyrazole-3-carboxylic acid piperidin-1-ylamide]
6 | 31.6 | – | – | C[C@H]1C(C(=O)NN2CC3CCCC3C2)=NN(c2ccc(Cl)cc2Cl)[C@H]1c1ccc(Cl)cc1 (relative stereo) [Example 108, cis-5-(4-Chlorophenyl)-1-(2,4-dichlorophenyl)-4-methyl-4,5-dihydro-1H-pyrazole-3-carboxylic acid (hexahydrocyclopenta[c]pyrrol-2-yl)-amide hydrochloride]
7 | 53 | – | – | C[C@H]1C(C(=O)NN2CC3CCCC3C2)=NN(c2ccc(Cl)cc2Cl)[C@H]1c1ccc(Br)cc1 (relative stereo) [Example 213, cis-5-(4-bromophenyl)-1-(2,4-dichlorophenyl)-N-(hexahydrocyclopenta[c]pyrrol-2(1H)-yl)-4-methyl-4,5-dihydro-1H-pyrazole-3-carboxamide hydrochloride]
8 | 280 | – | – | C[C@@H]1C(C(=O)NN2CCCCC2)=NN(c2ccc(Cl)cc2Cl)[C@H]1c1ccc(Cl)s1 (relative stereo) [Example 426, trans-5-(5-chlorothiophen-2-yl)-1-(2,4-dichlorophenyl)-4-methyl-N-(piperidin-1-yl)-4,5-dihydro-1H-pyrazole-3-carboxamide hydrochloride]
9 | – | 30.4 | 2.8 | C[C@@H]1C(C(=O)NN2CCCCC2)=NN(c2ccc(Cl)cc2Cl)[C@@H]1c1ccc(Cl)cc1 [Example 420, (+)-cis-5-(4-chlorophenyl)-1-(2,4-dichlorophenyl)-4-methyl-N-(piperidin-1-yl)-4,5-dihydro-1H-pyrazole-3-carboxamide]
10 | – | −11 | −10.1 | CC1C(C(=O)O)=NN(c2ccc(Cl)cc2Cl)C1c1ccccc1 (centres unmarked) [Example 429, 1-(2,4-dichlorophenyl)-4-methyl-5-phenyl-4,5-dihydro-1H-pyrazole-3-carboxylic acid]

Row | Molecule | IC50 (CB1-receptor [1]) [nM] | Inhibition (CB1-receptor [2]; 10^−7 M) [%] | Inhibition (CB1-receptor [2]; 10^−8 M, in %)
11 | cis-1-(2,4-dichlorophenyl)-5-(4-hydroxyphenyl)-4-methyl-N-(piperidin-1-yl)-4,5-dihydro-1H-pyrazole-3-carboxamide [Example 343] | – | −10.1 | −15.8
